This note sets out measurements from PubChem BioAssay AID1195 (EPA DSSTox, 2008).

The subject of the series is human maximum recommended daily dose, FDA database. In words: DSSTox (FDAMDD) FDA Maximum (Recommended) Daily Dose Database. To be noted: hits give low values. In short, it runs like this:
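MRDD values come from clinical trials with daily oral dosing, usually for 3–12 months, for the average adult, in mg/day converted to mg/kg-bw/day assuming 60 kg. Antineoplastic mg/m2 doses are divided by 37. Activity score maps log10(1/MRDD mmol) onto 1–100.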

Where [1] appears, read: TherapeuticCategory: anticholinergic.
Setting [2] is: TherapeuticCategory: antibacterial.
[3] abbreviates: TherapeuticCategory: bronchodilator.
The mark [4] stands for this setting: TherapeuticCategory: antidepressant.
Where [5] appears, read: TherapeuticCategory: diuretic, antihypertensive.
[6] abbreviates: TherapeuticCategory: anxiolytic.
Where [7] appears, read: TherapeuticCategory: antidiabetic.
[8] abbreviates: TherapeuticCategory: anti inflammatory.
[9] abbreviates: TherapeuticCategory: antineoplastic.

Molecules are shown by their SMILES.

Consider `CC[N+](CC)(CC)CCOc1cccc(OCC[N+](CC)(CC)CC)c1OCC[N+](CC)(CC)CC`, for which the maximum recommended daily dose (mmol/kg-bw/day) (TherapeuticCategory: skeletal muscle relaxant) was 0.00224.
As for `C[N+]1(C)CCC(OC(=O)CC(O)(c2ccccc2)C2CCCC2)C1` (centres undefined), the maximum recommended daily dose (mmol/kg-bw/day) under setting [1] is 0.000162.
As to `O=C(Cc1cccs1)N[C@@H]1C(=O)N2C(C(=O)[O-])=C(C[n+]3ccccc3)CS[C@H]12`, under setting [2], the maximum recommended daily dose (mmol/kg-bw/day) was 0.161.
For the compound `C[C@]12CC[C@H]3[C@@H](CCC4=CC(=O)CC[C@@H]43)[C@@H]1CC[C@@H]2OC(=O)CCc1ccccc1`, the maximum recommended daily dose (mmol/kg-bw/day) (TherapeuticCategory: anabolic steroid) is 0.00819.
Take `Cn1c(=O)c2[nH]cnc2n(C)c1=O`: the maximum recommended daily dose (mmol/kg-bw/day) under setting [3] is 0.0481.
Turning to `C#C[C@]1(O)CC[C@H]2[C@@H]3CCC4=CCCC[C@@H]4[C@H]3C(=C)C[C@@]21CC`, the maximum recommended daily dose (mmol/kg-bw/day) (TherapeuticCategory: progestogen) is 8.05e-06.
Consider `CC(=O)Nc1ccc(O)cc1`, for which the maximum recommended daily dose (mmol/kg-bw/day) (TherapeuticCategory: analgesic, antipyretic) is 0.331.
For `CNCCCN1c2ccccc2CCc2ccccc21`, under setting [4], the maximum recommended daily dose (mmol/kg-bw/day) is 0.0188.
Regarding `NS(=O)(=O)c1cc2c(cc1Cl)NC(C(Cl)Cl)NS2(=O)=O` (centres undefined), the maximum recommended daily dose (mmol/kg-bw/day) under setting [5] was 0.000175.
Turning to `CN1CCCC(n2nc(Cc3ccc(Cl)cc3)c3ccccc3c2=O)CC1` (centres undefined), the maximum recommended daily dose (mmol/kg-bw/day) (TherapeuticCategory: antiallergic, antiasthmatic, antihistaminic) is 0.000348.
On to `O=C(OC[C@H]1O[C@](O)(COC(=O)c2cccnc2)[C@@H](OC(=O)c2cccnc2)[C@@H]1OC(=O)c1cccnc1)c1cccnc1`, for which the maximum recommended daily dose (mmol/kg-bw/day) (TherapeuticCategory: peripheral vasodilator) is 0.111.
In the case of `CCSc1ccc2c(c1)N(CCCN1CCN(C)CC1)c1ccccc1S2`, the maximum recommended daily dose (mmol/kg-bw/day) (TherapeuticCategory: antiemetic) is 0.00125.
As to `CN(C)[C@@H]1C(=O)C(C(N)=O)=C(O)[C@@]2(O)C(=O)C3=C(O)c4c(O)cccc4[C@@](C)(O)[C@H]3C[C@@H]12`, the maximum recommended daily dose (mmol/kg-bw/day) (TherapeuticCategory: antiamebic, antibacterial, antirickettsial) was 0.0749.
With `CN1CC[C@]23c4c5ccc(O)c4O[C@H]2C(=O)CC[C@@]3(O)[C@H]1C5`, for the setting “TherapeuticCategory: narcotic analgesic”, the maximum recommended daily dose (mmol/kg-bw/day) was 0.000498.
On to `CCc1cc2c(s1)N(C)C(=O)CN=C2c1ccccc1Cl`, for which the maximum recommended daily dose (mmol/kg-bw/day) under setting [6] is 0.00314.
For the compound `COc1cc(Cc2cnc(N)nc2N)cc(OC)c1OC`, the maximum recommended daily dose (mmol/kg-bw/day) under setting [2] was 0.0184.
With `C#CCN1C(=O)CN=C(c2ccccc2)c2cc(Cl)ccc21`, the maximum recommended daily dose (mmol/kg-bw/day) under setting [6] is 0.00108.
For `Cc1ccc(S(=O)(=O)NC(=O)NN2CC3CCCC3C2)cc1` (centres undefined), under setting [7], the maximum recommended daily dose (mmol/kg-bw/day) is 0.0165.
With `NCC[C@H](O)C(=O)N[C@@H]1C[C@H](N)[C@@H](O[C@H]2O[C@H](CN)[C@@H](O)[C@H](O)[C@H]2O)[C@H](O)[C@H]1O[C@H]1O[C@H](CO)[C@@H](O)[C@H](N)[C@H]1O`, the maximum recommended daily dose (mmol/kg-bw/day) under setting [2] was 0.0256.
With `CN1CCc2cccc3c2[C@H]1Cc1ccc(O)c(O)c1-3`, the maximum recommended daily dose (mmol/kg-bw/day) (TherapeuticCategory: emetic) is 0.00625.
`CN1C(=O)CN=C(c2ccccc2)c2cc([N+](=O)[O-])ccc21`: the maximum recommended daily dose (mmol/kg-bw/day) (TherapeuticCategory: anticonvulsant, skeletal muscle relaxant) is 0.000282.
As for `N[C@@H](Cc1c[nH]c2ccccc12)C(=O)O`, the maximum recommended daily dose (mmol/kg-bw/day) (TherapeuticCategory: antidepressant, nutrient) was 0.49.
Take `CCOC(=O)c1c(C)cc2c(CO)n[nH]c(=O)c2c1C`: for the setting “TherapeuticCategory: phosphodiesterase inhibitor”, the maximum recommended daily dose (mmol/kg-bw/day) was 0.724.
Regarding `NC[C@@H]1CC[C@@H](N)[C@@H](O[C@H]2[C@H](O)[C@@H](O[C@H]3O[C@H](CO)[C@@H](O)[C@H](N)[C@H]3O)[C@H](N)C[C@@H]2N)O1`, under setting [2], the maximum recommended daily dose (mmol/kg-bw/day) was 0.00664.
As for `O=C1N(Cc2ccccc2)C2C[S+]3CCCC3C2N1Cc1ccccc1` (centres undefined), for the setting “TherapeuticCategory: antihypertensive”, the maximum recommended daily dose (mmol/kg-bw/day) is 0.000112.
As for `COc1ccc(CCN2CCC(Nc3nc4ccccc4n3Cc3ccc(F)cc3)CC2)cc1`, the maximum recommended daily dose (mmol/kg-bw/day) (TherapeuticCategory: antiallergic, antiarrhythmic) was 0.000364.
With `CN(C)CCOc1ccc(/C(=C(/CCCl)c2ccccc2)c2ccccc2)cc1`, where the note is “TherapeuticCategory: antiestrogen, antineoplastic”, the maximum recommended daily dose (mmol/kg-bw/day) is 0.0082.
With `COc1ccc(CN(CCN(C)C)c2ccccn2)cc1`, the maximum recommended daily dose (mmol/kg-bw/day) (TherapeuticCategory: antihistaminic) is 0.00438.
Regarding `NCCCC(N)(C(=O)O)C(F)F` (centres undefined), the maximum recommended daily dose (mmol/kg-bw/day) (TherapeuticCategory: antineoplastic, antineumocystis, antiprotozoal) is 2.2.
On to `N[C@@H](C(=O)N[C@@H]1C(=O)N2C(C(=O)O)=C(Cl)CS[C@H]12)c1ccccc1`, for which, under setting [2], the maximum recommended daily dose (mmol/kg-bw/day) was 0.068.
As to `CCCCC1C(=O)NN(c2ccccc2)C1=O` (centres undefined), under setting [8], the maximum recommended daily dose (mmol/kg-bw/day) is 0.0215.
For `CNC(=O)c1c(I)c(NC(C)=O)c(I)c(C(=O)O)c1I`, under “TherapeuticCategory: diagnostic aid”, the maximum recommended daily dose (mmol/kg-bw/day) is 0.163.
For the compound `CO[C@@H]1[C@@H](O[C@@H]2O[C@H](C)[C@@H](O[C@H]3C[C@@](C)(O)[C@@H](O)[C@H](C)O3)[C@H](N(C)C)[C@H]2O)[C@@H](CC=O)C[C@@H](C)[C@@H](O[C@@H]2CC[C@H](N(C)C)[C@@H](C)O2)/C=C/C=C/C[C@@H](C)OC(=O)C[C@H]1OC(C)=O`, the maximum recommended daily dose (mmol/kg-bw/day) under setting [2] is 0.0754.
In the case of `CNCCc1ccccn1`, the maximum recommended daily dose (mmol/kg-bw/day) (TherapeuticCategory: vasodilator) was 0.00587.
Turning to `Cc1ccccc1-n1c(C)nc2ccccc2c1=O`, the maximum recommended daily dose (mmol/kg-bw/day) (TherapeuticCategory: hypnotic, sedative) is 0.02.
On to `NC[C@H]1O[C@H](O[C@H]2[C@H](O)[C@@H](O)[C@H](N)C[C@@H]2N)[C@H](N)[C@@H](O)[C@@H]1O`, for which the maximum recommended daily dose (mmol/kg-bw/day) under setting [2] was 0.31.
For the compound `Nc1ccn([C@H]2CC[C@@H](CO)O2)c(=O)n1`, the maximum recommended daily dose (mmol/kg-bw/day) (TherapeuticCategory: antiviral) is 0.000178.
As for `COc1cnc(NS(=O)(=O)c2ccc(N)cc2)nc1`, the maximum recommended daily dose (mmol/kg-bw/day) under setting [2] was 0.0892.
The same measure, in the same setting: for `C/C=C\C1=C(C(=O)O)N2C(=O)[C@@H](NC(=O)[C@H](N)c3ccc(O)cc3)[C@H]2SC1` the value was 0.0429.
As to `N[C@@H](CCC(=O)O)C(=O)O`, the maximum recommended daily dose (mmol/kg-bw/day) (TherapeuticCategory: experimental antiepileptic) is 0.68.
In the case of `CO[C@@]1(NC(=O)C(C(=O)O)c2ccc(O)cc2)C(=O)N2C(C(=O)O)=C(CSc3nnnn3C)CO[C@@H]21` (some centres undefined), the maximum recommended daily dose (mmol/kg-bw/day) under setting [2] is 0.128.
Regarding `CCN(CC)C(=O)[C@@H]1C=C2c3cccc4[nH]cc(c34)C[C@H]2N(C)C1`, the maximum recommended daily dose (mmol/kg-bw/day) (TherapeuticCategory: antipsychotic, seratonin receptor antagonist) is 3.86e-05.
Consider `CN1C(=O)CN=C(c2ccccc2)c2cc(Cl)ccc21`, for which the maximum recommended daily dose (mmol/kg-bw/day) (TherapeuticCategory: anxiolytic, skeletal muscle relaxant) is 0.00234.
For the compound `CO[C@H]1C[C@@H]2CC[C@@H](C)[C@@](O)(O2)C(=O)C(=O)N2CCCC[C@H]2C(=O)O[C@H]([C@H](C)C[C@@H]2CC[C@@H](O)[C@H](OC)C2)CC(=O)[C@H](C)/C=C(\C)[C@@H](O)[C@@H](OC)C(=O)[C@H](C)C[C@H](C)/C=C/C=C/C=C/1C`, the maximum recommended daily dose (mmol/kg-bw/day) (TherapeuticCategory: immunosuppressant) is 0.000148.
On to `CC[N+]1(CC)CCC(=C(c2ccccc2)c2ccccc2)C1C` (centres undefined), for which, where the note is “TherapeuticCategory: antispasmodic”, the maximum recommended daily dose (mmol/kg-bw/day) was 0.00518.
Regarding `CC(=O)[C@]1(O)Cc2c(O)c3c(c(O)c2[C@@H](O[C@H]2C[C@H](N)[C@H](O)[C@H](C)O2)C1)C(=O)c1c(O)cccc1C3=O`, under setting [9], the maximum recommended daily dose (mmol/kg-bw/day) was 0.00132.
As to `COc1c2occc2cc2ccc(=O)oc12`, the maximum recommended daily dose (mmol/kg-bw/day) (TherapeuticCategory: pigmentation agent) is 0.00278.
Regarding `CN(C)[C@@H]1C(=O)C(C(N)=O)=C(O)[C@@]2(O)C(=O)C3=C(O)c4c(O)ccc(Cl)c4[C@@](C)(O)[C@H]3C[C@@H]12`, the maximum recommended daily dose (mmol/kg-bw/day) (TherapeuticCategory: antibacterial, antiamebic) was 0.0695.
As for `O=C(Oc1ccccc1C(=O)O)c1ccccc1O`, under “TherapeuticCategory: analgesic, anti inflammatory”, the maximum recommended daily dose (mmol/kg-bw/day) was 0.258.
In the case of `NC(N)=Nc1nc(CSCC/C(N)=N/S(N)(=O)=O)cs1`, the maximum recommended daily dose (mmol/kg-bw/day) (TherapeuticCategory: antiulcerative) was 0.00198.
`NC[C@H]1O[C@H](O[C@H]2[C@H](O)[C@@H](O[C@H]3O[C@H](CO)[C@@H](O)[C@H](N)[C@H]3O)[C@H](N)C[C@@H]2N)[C@H](N)C[C@@H]1O`: under setting [2], the maximum recommended daily dose (mmol/kg-bw/day) is 0.0193.
On the same count and under the same terms, for `CC1(C)S[C@@H]2[C@H](N3C(=O)C(c4ccccc4)NC3(C)C)C(=O)N2[C@H]1C(=O)O` (some centres undefined) the value was 0.0855.
On to `NS(=O)(=O)c1cc2c(cc1Cl)NC(CSCc1ccccc1)=NS2(=O)=O`, for which the maximum recommended daily dose (mmol/kg-bw/day) under setting [5] is 0.00771.
`CC(C)[N+](C)(CCC(C(N)=O)(c1ccccc1)c1ccccc1)C(C)C`: the maximum recommended daily dose (mmol/kg-bw/day) under setting [1] is 0.000472.
As to `OC[C@H]1O[C@@H](n2cnc3c2NC=NC[C@H]3O)C[C@@H]1O`, the maximum recommended daily dose (mmol/kg-bw/day) under setting [9] was 0.000249.
In the case of `Cn1c(=O)c2c(ncn2CC2OCCO2)n(C)c1=O`, the maximum recommended daily dose (mmol/kg-bw/day) under setting [3] is 0.05.
For `O=C(CCNNC(=O)c1ccncc1)NCc1ccccc1`, under setting [4], the maximum recommended daily dose (mmol/kg-bw/day) is 0.0112.
For `CC1(C)S[C@@H]2[C@H](NC(=O)COc3ccccc3)C(=O)N2[C@H]1C(=O)O`, the maximum recommended daily dose (mmol/kg-bw/day) under setting [2] was 0.0713.
Turning to `NS(=O)(=O)c1cc2c(cc1C(F)(F)F)NC(Cc1ccccc1)NS2(=O)=O` (centres undefined), the maximum recommended daily dose (mmol/kg-bw/day) under setting [5] was 0.00079.
For `CC(c1cc2ccccc2s1)N(O)C(N)=O` (centres undefined), the maximum recommended daily dose (mmol/kg-bw/day) (TherapeuticCategory: antiasthmatic, anti inflammatry) is 0.169.
`OCCN1C[C@H](O)[C@@H](O)[C@H](O)[C@H]1CO`: under setting [7], the maximum recommended daily dose (mmol/kg-bw/day) was 0.0241.
In the case of `C[N+](C)(C)CC(=O)[O-]`, the maximum recommended daily dose (mmol/kg-bw/day) (TherapeuticCategory: hepatoprotectant) was 0.0711.
Take `CC(C)Cc1ccc(C(C)C(=O)O)cc1` (centres undefined): under setting [8], the maximum recommended daily dose (mmol/kg-bw/day) is 0.194.
Take `C=CCC1(C(C)C)C(=O)NC(=O)NC1=O`: under “TherapeuticCategory: sedative, hypnotic”, the maximum recommended daily dose (mmol/kg-bw/day) is 0.0127.
